Reference: the supplement of paper PMC13207355

Experiments:
Settings in all cases: exposure time: 72 h
E13 [1] = patient-derived glioblastoma stem cells of classical subtype; assay: surviving fraction (nuclei count normalised to DMSO); higher = more cells surviving (less toxic)
E21 [2] = patient-derived glioblastoma stem cells of mesenchymal subtype; assay: as above
E28 [3] = patient-derived glioblastoma stem cells of classical subtype; assay: as above
E31 [4] = patient-derived glioblastoma stem cells of proneural subtype; assay: as above
E34 [5] = patient-derived glioblastoma stem cells of proneural subtype; assay: as above
E57 [6] = patient-derived glioblastoma stem cells of mesenchymal subtype; assay: as above
FT3469 [7] = normal neural stem cell line; assay: as above
E13 [8] = assay: phenotypic distance (Euclidean, principal components) from DMSO controls (arbitrary units); higher = stronger morphological change
E21 [9] = assay: as above
E28 [10] = assay: as above
E31 [11] = assay: as above
E34 [12] = assay: as above
E57 [13] = assay: as above
FT3469 [14] = assay: as above
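Throughout, for phenotypic distance (Euclidean, principal components) from DMSO controls: cell Painting imaging in 384-well plates, CellProfiler features reduced to at least 20 principal components, Euclidean distance versus same-plate DMSO vehicle wells (0.1% v/v), median over six images per well.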
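Throughout, for surviving fraction (nuclei count normalised to DMSO): nuclei counted by high-content imaging of Hoechst-stained cells in laminin-coated 384-well plates, relative to 0.1% DMSO vehicle wells, with staurosporine as cell-death control.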

C[C@]12CC[C@H](O)C[C@H]1CC[C@@H]1[C@@H]2C[C@@H](O)[C@]2(C)[C@@H](C3=CC(=O)OC3)CC[C@]12O [Digoxigenin]
Settings | phenotypic distance | surviving fraction
E13 [1], 4.1 nM | – | 0.965
E13 [1], 12.3 nM | – | 1.05
E13 [1], 37 nM | – | 0.962
E13 [1], 111.1 nM | – | 0.89
E13 [1], 333.3 nM | – | 0.662
E13 [1], 1000 nM | – | 0.426
E13 [1], 3000 nM | – | 0.354
E13 [8], 4.1 nM | 0.193 | –
E13 [8], 12.3 nM | 0.571 | –
E13 [8], 37 nM | 0.503 | –
E13 [8], 111.1 nM | 0.911 | –
E13 [8], 333.3 nM | 2.63 | –
E13 [8], 1000 nM | 3.73 | –
E13 [8], 3000 nM | 4.86 | –
E21 [2], 4.1 nM | – | 0.996
E21 [2], 12.3 nM | – | 0.951
E21 [2], 37 nM | – | 0.891
E21 [2], 111.1 nM | – | 0.887
E21 [2], 333.3 nM | – | 0.582
E21 [2], 1000 nM | – | 0.473
E21 [2], 3000 nM | – | 0.331
E21 [9], 4.1 nM | 0.486 | –
E21 [9], 12.3 nM | 0.815 | –
E21 [9], 37 nM | 0.94 | –
E21 [9], 111.1 nM | 1.64 | –
E21 [9], 333.3 nM | 3.18 | –
E21 [9], 1000 nM | 3.95 | –
E21 [9], 3000 nM | 6.35 | –
E28 [3], 4.1 nM | – | 1.01
E28 [3], 12.3 nM | – | 1.11
E28 [3], 37 nM | – | 0.883
E28 [3], 111.1 nM | – | 0.991
E28 [3], 333.3 nM | – | 1.02
E28 [3], 1000 nM | – | 0.998
E28 [3], 3000 nM | – | 0.537
E28 [10], 4.1 nM | 0.383 | –
E28 [10], 12.3 nM | 0.587 | –
E28 [10], 37 nM | 0.46 | –
E28 [10], 111.1 nM | 0.569 | –
E28 [10], 333.3 nM | 0.59 | –
E28 [10], 1000 nM | 1.04 | –
E28 [10], 3000 nM | 2.24 | –
E31 [4], 4.1 nM | – | 1.01
E31 [4], 12.3 nM | – | 0.832
E31 [4], 37 nM | – | 0.916
E31 [4], 111.1 nM | – | 0.996
E31 [4], 333.3 nM | – | 0.946
E31 [4], 1000 nM | – | 0.603
E31 [4], 3000 nM | – | 0.348
E31 [11], 4.1 nM | 0.558 | –
E31 [11], 12.3 nM | 0.764 | –
E31 [11], 37 nM | 0.809 | –
E31 [11], 111.1 nM | 0.828 | –
E31 [11], 333.3 nM | 1.83 | –
E31 [11], 1000 nM | 3.63 | –
E31 [11], 3000 nM | 4.82 | –
E34 [5], 4.1 nM | – | 0.86
E34 [5], 12.3 nM | – | 0.942
E34 [5], 37 nM | – | 0.861
E34 [5], 111.1 nM | – | 1.04
E34 [5], 333.3 nM | – | 0.767
E34 [5], 1000 nM | – | 0.63
E34 [5], 3000 nM | – | 0.568
E34 [12], 4.1 nM | 0.591 | –
E34 [12], 12.3 nM | 0.506 | –
E34 [12], 37 nM | 0.531 | –
E34 [12], 111.1 nM | 0.98 | –
E34 [12], 333.3 nM | 1.57 | –
E34 [12], 1000 nM | 3.22 | –
E34 [12], 3000 nM | 4.52 | –
E57 [6], 4.1 nM | – | 0.942
E57 [6], 12.3 nM | – | 0.969
E57 [6], 37 nM | – | 1.05
E57 [6], 111.1 nM | – | 0.975
E57 [6], 333.3 nM | – | 0.663
E57 [6], 1000 nM | – | 0.346
E57 [6], 3000 nM | – | 0.238
E57 [13], 4.1 nM | 0.552 | –
E57 [13], 12.3 nM | 1.14 | –
E57 [13], 37 nM | 0.391 | –
E57 [13], 111.1 nM | 0.908 | –
E57 [13], 333.3 nM | 3.27 | –
E57 [13], 1000 nM | 4.63 | –
E57 [13], 3000 nM | 6.24 | –
FT3469 [7], 4.1 nM | – | 0.774
FT3469 [7], 12.3 nM | – | 0.984
FT3469 [7], 37 nM | – | 1.03
FT3469 [7], 111.1 nM | – | 0.968
FT3469 [7], 333.3 nM | – | 0.801
FT3469 [7], 1000 nM | – | 0.652
FT3469 [7], 3000 nM | – | 0.62
FT3469 [14], 4.1 nM | 1 | –
FT3469 [14], 12.3 nM | 1.82 | –
FT3469 [14], 37 nM | 0.883 | –
FT3469 [14], 111.1 nM | 1.27 | –
FT3469 [14], 333.3 nM | 2.84 | –
FT3469 [14], 1000 nM | 4.38 | –
FT3469 [14], 3000 nM | 3.34 | –
